Measurements reported in US7105527B2, “N4-acylcytosine nucleosides for treatment of viral infections” (priority 2001, dated 2006).
Where two headings read alike, the source gives them in different places.

Assays:
[1] = test system: HIV-1LAl; experiment: Anti-HIV (in PBM cells) assay, reverse transcriptase readout; type: cell-based
Protocol: Anti-HIV-1 activity of the compounds was determined in human peripheral blood mononuclear (PBM) cells as described previously (Schinazi […]., Cannon D., Mathis R., Lloyd R. M. Jr., […]., St. Clair M., Wilson J., Furman P. A., Painter G., Choi […]. Antimicrob. Agents Chemother. 1992, 36, 2423; Schinazi […]., Cannon D., Xie […]., Smith G., Hahn E. Antimicrob. Agents Chemother. 1990, 34, 1061). Stock solutions ([…]) of the compounds were prepared in sterile DMSO and then diluted to the desired concentration in growth medium. […] Virus obtained from the cell supernatant was quantified on day 6 after infection by a reverse transcriptase assay using (rA)n.(dT)12.18 as template-primer. […] AZT was included as positive control. The antiviral EC50 and EC90 were obtained from the concentration-response curve using the median effective method described previously (Chou […]. Enzyme Regul. 1984, 22, 27-55; Belen'kii M. S. & Schinazi R. F. Antiviral Res. 1994, 25, 1-11).

[2] = test system: HIV-1RF; experiment: Anti-HIV (in MT-2 cells) assay, viral RNA accumulation; type: cell-based; conditions: EC90, MT-2 cells, read-out: Anti-HIV-1 activity in different cells (EC90, μM) MT-2
Protocol: (§1) In a second antiviral testing system, the potency of the compounds was determined by measurement of viral RNA accumulation in HIV-1RF infected MT-2 cells (Bacheler L T, Paul M, Otto M J, Jadhav P K, Stone B A & Miller J A (1994) An assay for HIV RNIn infected cell lysates, and its use for rapid evaluation of antiviral efficacy. Antivir. Chem. Chemother. 5:111–121). The virus titer was established to determine the dilution producing 15 to 30 ng/RNA per well of HIV RNIn 3 days of infection. HIV-1 RNA was quantified using biotinylated capture and alkaline phosphatase-derivatized reporter oligonucleotides as described previously (Charvet A-S, Camplo M, Faury P, Graciet J C, Mourier N, Chermann J C & Kraus J L (1994) Inhibition of human immunodeficiency virus type 1 replication by phosphonoformate- and phosphonoacetate-2′,3′-dideoxy-3′-thiacytidine conjugates. J. Med. Chem. 37:2216–2223). In a third system, the effect of analogs on the replication of HIV-1NL4-3 was determined via the InterCompany Consortium consensus p24 assay as previously described (Jadhav P K & MacKay M F (1997) Cyclic urea amide: HIV-1 protease inhibitors with low nanomolar potency against both wild types and protease inhibitor resistant mutants of HIV. J. Med. Chem. 40:181–190). Recombinant viruses were recovered by transfecting the appropriate NL4-3 plasmid by lipofection. Virus stocks recovered 7 to 10 days post-transfection were titered on MT-4 cells to determine if the dilution produced 1,000 to 3,000 ng p24 in 4 days. This dilution was then used in drug susceptibility assays, where drug was added 24 h post infection of cells, and p24 quantified by ELISA 3 days later.

[3] = test system: HIV-1NL4-3; experiment: Anti-HIV assay in MT-4 cells, consensus p24 assay; type: cell-based
Protocol: as §1

[4] = Cytotoxicity assay in PBM cells; type: cell-based, human; conditions: human, human PBM cells
Protocol: (§2) The toxicity of the compounds was assessed in Vero, human PBM, CEM (human lymphoblastoid), MT-2, and HepG2 cells, as described previously (Schinazi […]., Cannon D. L., Xie […]., Smith […]. […] Cycloheximide was included as positive cytotoxic control, and untreated cells exposed to solvent were included as negative controls. The cytotoxicity IC50 was obtained from the concentration-response curve using the median effective method described previously (Chou […]. […] Belen'kii M. S. & Schinazi R. F.

[5] = Cytotoxicity assay in CEM cells; type: cell-based, human; conditions: human, CEM lymphoblastoid cells
Protocol: as §2

[6] = Cytotoxicity assay in Vero cells; type: cell-based; conditions: African green monkey
Protocol: as §2

[7] = Cytotoxicity assay in MT-2 cells; type: cell-based; conditions: human
Protocol: as §2

[8] = Cytotoxicity assay in HepG2 cells; type: cell-based; conditions: human
Protocol: as §2

[9] = test system: human PBM cells; experiment: Cytotoxicity assay in PBM cells; type: cell-based; conditions: Table 1, read-out: Cytotoxicity in different cells (IC50, μM) PBM
Protocol: as §2

[10] = test system: CEM (human lymphoblastoid) cells; experiment: Cytotoxicity assay in CEM cells; type: cell-based; conditions: Table 1, read-out: Cytotoxicity in different cells (IC50, μM) CEM
Protocol: as §2

[11] = test system: Vero cells; experiment: Cytotoxicity assay in Vero cells; type: cell-based; conditions: Table 1, read-out: Cytotoxicity in different cells (IC50, μM) Vero
Protocol: as §2

[12] = test system: MT-2 cells; experiment: Cytotoxicity assay in MT-2 cells; type: cell-based; conditions: Table 1, read-out: Cytotoxicity in different cells (IC50, μM) MT-2
Protocol: as §2

[13] = test system: HepG2 cells; experiment: Cytotoxicity assay in HepG2 cells; type: cell-based; conditions: Table 1, read-out: Cytotoxicity in different cells (IC50, μM) HepG2
Protocol: as §2

[14] = Human immunodeficiency virus 1, PBMC, Table 1, read-out: Anti-HIV-1 activity in different cells (EC90, μM) PBM
[15] = Human immunodeficiency virus 1, MT2, Table 1
[16] = Human immunodeficiency virus 1, MT4, Table 1, read-out: Anti-HIV-1 activity in different cells (EC90, μM) MT-4
[17] = Table 1, read-out: Cytotoxicity in different cells (IC50, μM) PBM
[18] = Table 1, read-out: Cytotoxicity in different cells (IC50, μM) CEM
[19] = Table 1, read-out: Cytotoxicity in different cells (IC50, μM) Vero
[20] = Table 1, read-out: Cytotoxicity in different cells (IC50, μM) MT-2
[21] = Table 1, read-out: Cytotoxicity in different cells (IC50, μM) HepG2
[22] = Human immunodeficiency virus 1, PBMC, Table 2, read-out: Anti-HIV-1 activity in different cells (EC90, μM) PBM
[23] = Human immunodeficiency virus 1, MT2, Table 2
[24] = Human immunodeficiency virus 1, MT4, Table 2, read-out: Anti-HIV-1 activity in different cells (EC90, μM) MT-4
[25] = Table 2, read-out: Cytotoxicity in different cells (IC50, μM) PBM
[26] = Table 2, read-out: Cytotoxicity in different cells (IC50, μM) CEM
[27] = Table 2, read-out: Cytotoxicity in different cells (IC50, μM) Vero
[28] = Table 2, read-out: Cytotoxicity in different cells (IC50, μM) MT-2
[29] = Table 2, read-out: Cytotoxicity in different cells (IC50, μM) HepG2

Compound	EC90 [1, 14] [µM]	EC90 [2, 15] [µM]	EC90 [3, 16] [µM]	IC50 [4, 17] [µM]	IC50 [5, 18] [µM]	IC50 [6, 19] [µM]	IC50 [7, 20] [µM]	IC50 [8, 21] [µM]	also measured
O=C(Nc1nc(=O)n([C@H]2CC[C@@H](CO)O2)cc1F)c1ccc(Cl)cc1 [Compound 12, β-D-N^4-(4-chlororobenzoyl)-2′,3′-dideoxy-5-fluorocytidine]	0.02	0.22	0.37	> 100	33.4	> 100	> 50	7.3	–
O=C(Nc1nc(=O)n([C@H]2CC[C@@H](CO)O2)cc1F)c1ccc(Br)cc1 [Compound 13, β-D-N^4-(4-bromobenzoyl)-2′,3′-dideoxy-5-fluorocytidine]	0.03	0.14	0.3	> 100	31.6	> 100	> 50	> 100	–
O=C(Nc1nc(=O)n([C@H]2CC[C@@H](CO)O2)cc1F)c1cccc(F)c1 [Compound 14, β-D-2′,3′-Dideoxy-5-fluoro-M-(3-fluorobenzoyl)cytidine]	0.106	0.46	0.43	> 100	80.8	> 100	> 50	> 100	–
O=C(Nc1nc(=O)n([C@H]2CC[C@@H](CO)O2)cc1F)c1cccc(Cl)c1 [Compound 15, β-D-N^4-(3-Chlorobenzoyl)-2′,3′-dideoxy-5-fluorocytidine]	0.08	0.4	0.51	> 100	68.1	91.6	> 50	> 100	–
O=C(Nc1nc(=O)n([C@H]2CC[C@@H](CO)O2)cc1F)c1cccc(Br)c1 [Compound 16, β-D-N^4-(3-Bromobenzoyl)-2′,3′-dideoxy-5-fluorocytidine]	0.145	0.51	0.42	> 100	40.6	80.6	> 50	> 100	–
O=C(Nc1nc(=O)n([C@H]2CC[C@@H](CO)O2)cc1F)c1ccc([N+](=O)[O-])cc1 [Compound 18, β-D-2′,3′-Dideoxy-5-fluoro-N^4-(4-nitrobenzoyl)cytidine]	0.18	0.4	0.3	> 100	> 100	> 100	> 50	> 100	–
O=C(Nc1nc(=O)n([C@H]2CC[C@@H](CO)O2)cc1F)c1cccc([N+](=O)[O-])c1 [Compound 19, β-D-2′,3′-Dideoxy-S-fluoro-N-(3-nitrobenzoyl)cytidine]	–	–	–	–	–	–	–	–	EC90 ([1]; Table 1, read-out: Anti-HIV-1 activity in different cells (EC90, μM) PBM): 1.6 µM; EC90 ([2]; Table 1): 1.8 µM; EC90 ([3]; Table 1, read-out: Anti-HIV-1 activity in different cells (EC90, μM) MT-4): 1.59 µM; IC50 [9]: > 100 µM; IC50 [10]: > 100 µM; IC50 [11]: > 100 µM; IC50 [12]: > 50 µM; IC50 [13]: > 100 µM
Cc1ccc(C(=O)Nc2nc(=O)n([C@H]3CC[C@@H](CO)O3)cc2F)cc1 [Compound 22, β-D-2′,3′-Dideoxy-5-fluoro-N^4-p-toluoylcytidine]	0.028	0.31	0.23	> 100	> 100	> 100	> 50	> 100	–
CCc1ccc(C(=O)Nc2nc(=O)n([C@H]3CC[C@@H](CO)O3)cc2F)cc1 [Compound 25, β-D-2′,3′-Dideoxy-N^4-(4-ethylbenzoyl)-5-fluorocytidine]	0.03	0.12	0.22	> 100	89.8	> 100	50	> 100	–
CCCc1ccc(C(=O)Nc2nc(=O)n([C@H]3CC[C@@H](CO)O3)cc2F)cc1 [Compound 26, β-D-2′,3′-Dideoxy-5-fluoro-N^4-(4-n-propylbenzoyl)cytidine]	0.017	0.1	0.22	> 100	> 100	> 100	> 50	> 100	–
O=C(Nc1nc(=O)n([C@H]2C=C[C@@H](CO)O2)cc1F)c1ccc(F)cc1 [Compound 35, β-D-2′,3′-Didehydro-2′,3′-dideoxy-5-fluoro-N^4-(4-fluorobenzoyl)cytidine]	–	–	–	–	–	–	–	–	EC90 [1, 22]: 1.08 µM; EC90 [2, 23]: 0.88 µM; EC90 [3, 24]: 7.2 µM; IC50 [4, 25]: 53.1 µM; IC50 [5, 26]: 51.3 µM; IC50 [6, 27]: 83.1 µM; IC50 [7, 28]: > 50 µM; IC50 [8, 29]: 93.6 µM
O=C(Nc1nc(=O)n([C@H]2C=C[C@@H](CO)O2)cc1F)c1ccc(Cl)cc1 [Compound 36, β-D-N^4-(4-Chlorobenzoyl)-2′,3′-didehydro-2′,3′-dideoxy-5-fluorocytidine]	–	–	–	–	–	–	–	–	EC90 [1, 22]: 0.48 µM; EC90 [2, 23]: 0.23 µM; EC90 [3, 24]: 1.9 µM; IC50 [4, 25]: 11.9 µM; IC50 [5, 26]: 16.8 µM; IC50 [6, 27]: 72.2 µM; IC50 [7, 28]: > 50 µM; IC50 [8, 29]: > 100 µM
O=C(Nc1nc(=O)n([C@H]2C=C[C@@H](CO)O2)cc1F)c1ccc(Br)cc1 [Compound 37, β-D-N^4-(4-Bromobenzoyl)-2,3′-didehydro-2′,3′-dideoxy-5-fluorocytidine]	–	–	–	–	–	–	–	–	EC90 [1, 22]: 1.4 µM; EC90 [2, 23]: 0.14 µM; EC90 [3, 24]: 5.2 µM; IC50 [4, 25]: 53 µM; IC50 [5, 26]: 24 µM; IC50 [6, 27]: 40.5 µM; IC50 [7, 28]: > 50 µM; IC50 [8, 29]: > 100 µM
O=C(Nc1nc(=O)n([C@H]2C=C[C@@H](CO)O2)cc1F)c1ccc(I)cc1 [Compound 38, β-D-2′,3′-Didehydro-2′,3′-dideoxy-5-fluoro-N^4-(4-iodobenzoyl)cytidine]	–	–	–	–	–	–	–	–	EC90 [1, 22]: 0.76 µM; EC90 [2, 23]: 0.31 µM; EC90 [3, 24]: 0.85 µM; IC50 [4, 25]: 57 µM; IC50 [5, 26]: 11.4 µM; IC50 [6, 27]: 100 µM; IC50 [7, 28]: > 50 µM; IC50 [8, 29]: > 100 µM
